Reference: US11214803B2, “Modulators of YAP1 expression” (Ionis Pharmaceuticals, Inc., priority 2019, dated 2022)
Strand notation (5' to 3'): a small letter for the sugar, then the base; units joined by * are phosphorothioate-linked, units joined directly phosphodiester-linked; [ ] holds rarer units or linkages, { } end groups; capitals alone tell only the bases. e = 2'-O-(2-methoxyethyl) (MOE); k = constrained ethyl (cEt); [5mC] = 5-methylcytosine; d = 2'-deoxy (DNA); m = 2'-O-methyl

Tested on: Yap1 mRNA
Experiment: Antisense inhibition of human Yap1 in SNU-449 cells by modified oligonucleotides, single dose (Example 5, RTS36584)
Assay type: cell-based
Summary of the method: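 Each modified oligonucleotide is applied by free uptake to SNU-449 cultures at 2,000 nM, and total RNA is harvested around 48 h later. Yap1 transcript, quantified with the RTS36584 set and corrected for RIBOGREEN RNA content, is given as % UTC. Asterisks mark sequences overlapping the amplicon.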

[1] = Table 40 (separate experiment), SNU-449 cells, 10,000 cells per well, free uptake, 2,000 nM oligonucleotide, approx. 48 hours, RTS36584, normalized to RIBOGREEN, Yap1 mRNA relative to untreated control
[2] = Table 51, Yap1 mRNA remaining as percent of untreated control (UT), SNU-449 cells, single dose
[3] = Table 49, Yap1 mRNA level relative to untreated control, modified oligonucleotides targeting SEQ ID NO.: 1 and 2
[4] = Table 39, SNU-449 cells, 10,000 cells per well, free uptake, 2,000 nM oligonucleotide, approx. 48 hours, RTS36584, normalized to RIBOGREEN, Yap1 mRNA relative to untreated control
[5] = Table 46, Yap1 mRNA as percent of untreated control, SNU-449 cells, single dose
[6] = Table 41, SNU-449 cells, 10,000 cells per well, free uptake, 2,000 nM modified oligonucleotide, approximately 48 hours, RTS36584, normalized to RIBOGREEN, Yap1 mRNA relative to untreated control cells
[7] = Yap1 mRNA, percent of untreated control, modified oligonucleotides targeting SEQ ID NO: 1 and 2, Table 47
[8] = Table 42 (separate experiment), SNU-449 cells, 10,000 cells per well, free uptake, 2,000 nM modified oligonucleotide, approximately 48 hours, RTS36584, normalized to RIBOGREEN, Yap1 mRNA relative to untreated control cells
[9] = Table 48, Yap1 mRNA level relative to untreated control, modified oligonucleotides targeting SEQ ID NO.: 1 and 2
[10] = Table 52, Yap1 mRNA, modified oligonucleotides targeting SEQ ID NO: 1 and 2
[11] = Table 45, Yap1 mRNA as percent of untreated control, SNU-449 cells, single dose
[12] = Table 44 experiment, SNU-449 cells, 10,000 cells per well, free uptake, 2,000 nM, approximately 48 hours, RTS36584, Yap1 mRNA normalized to RIBOGREEN, relative to untreated control cells
[13] = Table 43 experiment, SNU-449 cells, 10,000 cells per well, free uptake, 2,000 nM, approximately 48 hours, RTS36584, Yap1 mRNA normalized to RIBOGREEN, relative to untreated control cells

## 1198750 (kG*eG*kA*dA*dG*dA*dT*d[5mC]*dT*dG*dA*dA*eA*e[5mC]*kT*k[5mC]; antisense) [Compound 1198750]
[1]
  YAP1 (% UTC): 32 % UTC

## 1197257 (antisense kT*k[5mC]*kA*dG*mA*dT*dT*dT*dA*dG*dG*dA*dT*kG*k[5mC]*kA) [Compound 1197257]
[2]
  YAP1 (% UT): 20 % UT

## 1198557 (antisense kA*kT*kA*dT*dT*dA*dG*dA*dG*dT*dA*dT*kG*kT*kG*eG) [Compound 1198557]
[3]
  YAP1 (% UT): 16 % UT

## 1198449 (kA*dA*dG*dT*dA*dA*dG*dG*dT*dT*dT*k[5mC]*e[5mC]*k[5mC]*eA*kG; antisense) [Compound 1198449]
[4]
  YAP1 (% UTC): 37 % UTC

## 1198887 (kG*kA*d[5mC]*dT*dA*dA*dG*dT*dA*dA*dG*kG*eT*kT*eT*k[5mC]; antisense) [Compound 1198887]
[5]
  YAP1 (% UT): 71 % UT

## 1198774 (kA*eA*k[5mC]*dT*d[5mC]*dT*dT*dA*dT*dA*dT*dG*eG*eT*kT*kT; antisense) [Compound 1198774]
[6]
  YAP1 (% UTC): 106 % UTC

## 1197177 (antisense kA*kT*kT*dG*dT*d[5mC]*dT*d[5mC]*dA*dT*dG*d[5mC]*d[5mC]*kT*kT*kA) [Compound 1197177]
[7]
  YAP1 (% UT): 15 % UT

## 1198800 (antisense kA*e[5mC]*kT*dA*dA*dG*dT*dA*dA*dG*dG*dT*eT*eT*k[5mC]*k[5mC]) [Compound 1198800]
[1]
  YAP1 (% UTC): 47 % UTC

## 1198712 (kA*kG*dA*d[5mC]*dT*dA*dA*dG*dT*dA*dA*dG*kG*eT*kT*eT; antisense) [Compound 1198712]
[8]
  YAP1 (% UTC): 110 % UTC

## 1197205 (antisense kG*kA*k[5mC]*dA*dA*d[5mC]*dT*d[5mC]*dT*dT*dA*dT*dA*kT*kG*kG) [Compound 1197205]
[9]
  YAP1 (% UT): 67 % UT

## 1198447 (kT*dA*dA*dG*dG*dT*dT*dT*d[5mC]*d[5mC]*d[5mC]*kA*eG*kA*eT*kT; antisense) [Compound 1198447]
[4]
  YAP1 (% UTC): 63 % UTC

## 1197187 (antisense kG*kG*kA*dA*dG*dA*dT*d[5mC]*dT*dG*dA*dA*dA*k[5mC]*kT*k[5mC]) [Compound 1197187]
[7]
  YAP1 (% UT): 24 % UT

## 1200805 (kG*kA*kG*dG*dT*mA*dT*dA*dA*d[5mC]*dT*dG*dG*kG*k[5mC]*kA; antisense) [Compound 1200805]
[10]
  YAP1 (% UT): 50 % UT

## 1198204 (kT*kG*dG*dA*dA*dA*dT*dT*dG*dT*d[5mC]*eT*e[5mC]*eA*kT*kG; antisense) [Compound 1198204]
[8]
  YAP1 (% UTC): 31 % UTC

## 1076186 (kA*kT*kT*dT*dA*dG*dG*dA*dT*dG*d[5mC]*dA*dT*kG*kG*kT) [Compound 1076186]
[7]
  YAP1 (% UT): 31 % UT

## 1198846 (kT*kT*dA*dG*dG*dA*dT*dG*d[5mC]*dA*dT*kG*eG*kT*eT*kT; antisense) [Compound 1198846]
[5]
  YAP1 (% UT): 34 % UT

## 1198949 (kA*kT*dT*dG*d[5mC]*dA*dA*dT*d[5mC]*dT*dG*kT*d[5mC]*kT*dG*kA; antisense) [Compound 1198949]
[11]
  YAP1 (% UTC): 61 % UTC

## 1198962 (kT*kA*dA*dA*dG*dT*dG*dT*dA*dT*dG*kT*d[5mC]*kA*dG*kA; antisense) [Compound 1198962]
[11]
  YAP1 (% UTC): 52 % UTC

## 1198529 (kT*kT*dA*dA*dA*dG*dT*dG*dT*dA*dT*eG*kT*e[5mC]*kA*eG; antisense) [Compound 1198529]
[12]
  YAP1 (% UTC): 17 % UTC

## 1198781 (antisense kG*eT*kA*dA*dT*dA*dT*dT*dG*d[5mC]*dA*dA*eT*e[5mC]*kT*kG) [Compound 1198781]
[1]
  YAP1 (% UTC): 25 % UTC

## 1198697 (antisense kA*kG*dT*dG*dT*dA*dT*dG*dT*d[5mC]*dA*dG*kA*eA*kG*eA) [Compound 1198697]
[8]
  YAP1 (% UTC): 12 % UTC

## 1200817 (kA*kG*k[5mC]*dA*d[5mC]*mU*dT*dT*dT*dA*d[5mC]*dA*dT*kT*kA*kG; antisense) [Compound 1200817]
[10]
  YAP1 (% UT): 38 % UT

## 1198470 (antisense kT*kA*dT*dT*dA*dG*dA*dG*dT*dA*dT*eG*kT*eG*kG*e[5mC]) [Compound 1198470]
[13]
  YAP1 (% UTC): 17 % UTC

## 1198782 (antisense kT*eG*kT*dA*dA*dT*dA*dT*dT*dG*d[5mC]*dA*eA*eT*k[5mC]*kT) [Compound 1198782]
[1]
  YAP1 (% UTC): 61 % UTC

## 1198700 (kT*kA*dA*dA*dG*dT*dG*dT*dA*dT*dG*dT*k[5mC]*eA*kG*eA; antisense) [Compound 1198700]
[8]
  YAP1 (% UTC): 26 % UTC

## 1198850 (kA*kG*dA*dT*dT*dT*dA*dG*dG*dA*dT*kG*e[5mC]*kA*eT*kG; antisense) [Compound 1198850]
[5]
  YAP1 (% UT): 33 % UT

## 1198881 (kT*kA*dA*dG*dG*dT*dT*dT*d[5mC]*d[5mC]*d[5mC]*kA*eG*kA*eT*kT; antisense) [Compound 1198881]
[5]
  YAP1 (% UT): 36 % UT

## 1198524 (kT*kG*dT*dA*dT*dG*dT*d[5mC]*dA*dG*dA*eA*kG*eA*kG*eT; antisense) [Compound 1198524]
[12]
  YAP1 (% UTC): 3 % UTC

## 1198601 (antisense kA*kT*kT*dG*d[5mC]*dA*dA*dT*d[5mC]*dT*dG*dT*k[5mC]*kT*kG*eA) [Compound 1198601]
Table 50, Yap1 mRNA remaining as percent of untreated control (UT), SNU-449 cells, single dose
  YAP1 (% UT): 50 % UT

## 1197270 (kT*kT*kA*dA*mA*dG*dT*dG*dT*dA*dT*dG*dT*k[5mC]*kA*kG) [Compound 1197270]
[2]
  YAP1 (% UT): 2 % UT

## 1198664 (antisense kG*k[5mC]*dT*dT*dT*dG*dG*dA*dA*dG*dA*dT*k[5mC]*eT*kG*eA) [Compound 1198664]
[6]
  YAP1 (% UTC): 18 % UTC

## 1198331 (k[5mC]*kA*kG*dA*dT*dT*dT*dA*dG*dG*dA*dT*kG*e[5mC]*kA*eT; antisense) [Compound 1198331]
[9]
  YAP1 (% UT): 26 % UT

## 1200787 (kA*kA*kA*dT*dT*mG*dT*d[5mC]*dT*d[5mC]*dA*dT*dG*k[5mC]*k[5mC]*kT) [Compound 1200787]
[2]
  YAP1 (% UT): 38 % UT

## 1198770 (k[5mC]*eT*kT*dA*dT*dA*dT*dG*dG*dT*dT*dT*eT*eG*kT*kG; antisense) [Compound 1198770]
[6]
  YAP1 (% UTC): 40 % UTC

## 1200866 (kA*kG*kT*dA*dA*mG*dG*dT*dT*dT*d[5mC]*d[5mC]*d[5mC]*kA*kG*kA; antisense) [Compound 1200866]
[10]
  YAP1 (% UT): 41 % UT

## 1198966 (kA*kA*d[5mC]*dT*dT*dT*dA*dA*dA*dG*dT*kG*dT*kA*dT*kG) [Compound 1198966]
[5]
  YAP1 (% UT): 78 % UT

## 1198569 (antisense CACTTTTACATTAGGA; chemistry not fully specified) [Compound 1198569]
[3]
  YAP1 (% UT): 14 % UT

## 1198280 (kA*k[5mC]*dT*dA*dA*dG*dT*dA*dA*dG*dG*eT*eT*eT*k[5mC]*k[5mC]; antisense) [Compound 1198280]
[13]
  YAP1 (% UTC): 40 % UTC

## 1198514 (kG*kA*d[5mC]*dA*dA*d[5mC]*dT*d[5mC]*dT*dT*dA*eT*kA*eT*kG*eG; antisense) [Compound 1198514]
[12]
  YAP1 (% UTC): 53 % UTC
